Laboratory results reported in US12110283B2, “Carbonic anhydrase targeting agents and methods of using same” (VisEn Medical, Inc., priority 2011, dated 2024).

Columns and labels:
HeLa tumors [1] = experiment: Imaging of tumors in vivo using CA agents (planar reflectance and FMT); conditions: NU/NU mice, bilateral HeLa tumors, 2 nmoles i.v., 24 hrs post-injection
Description: In this experiment, NU/NU mice 6-8 weeks old (Charles River Laboratory, Wilmington, MA) were injected subcutaneously (s.c.) with about 2×10^6 HeLa cells bilaterally in each mammary fat pad. When tumors reached an approximate size of 3×3 mm, mice were injected intravenously (i.v.) with 2 nmoles of carbonic anhydrase agent C5 or nonbinding control agent D3 (5 mice/probe+2 mice/no probe as control) in 100 μL volume via tail vein. Imaging was conducted at 24 hrs post-injection using a Fluorescence Molecular Tomography system (VisEn Medical, Bedford, MA) that is commercially available.

[2] = Biodistribution of i.v. administered compound in HeLa tumor bearing mice; format: in vivo; conditions: 2 nmoles i.v., 24 hr, excised tissues, reflectance mode
Description: Female NU/NU mice 6-8 weeks old (Charles River Laboratory, Wilmington, MA) were injected subcutaneously (s.c.) with HeLa cells (5×10^6) in the first mammary fat pads. Once tumors reached the desired volume (measured with calipers using the formula volume mm^3=(length×width^2)/2), mice were injected i.v. with compound C5 (2 nmoles) or nonbinding control D3. Mice were sacrificed by carbon dioxide asphyxiation 24 hr later and certain tissues removed, rinsed with saline, blotted dry, and the imaged on a VisEn FMT 2500 using the reflectance mode. Regions of interest (ROIs) were drawn around each organ using the FMT Software and the mean fluorescence (reported as counts/energy) determined for each organ and normalized to the mean fluorescence in tumors taken to be 100%.

HeLa tumors [3] = experiment: Effect of acetazolamide treatment on carbonic anhydrase signal in HeLa tumor-bearing mice (FMT); format: in vivo; conditions: for accumulation in tumors as quantified by FMT (FIG. 5B): 24 hours
Description: HeLa tumor-bearing mice were randomized once their tumors reached the desired volume and injected i.v. with either C5 (2 nmoles). For competition studies, mice were injected with the acetazolamide (10 mg/kg) followed 60 minutes later by compound C5 (2 nmoles). Imaging was performed 24 hours after administration of the agents using the FMT 2500.

HeLa tumors [4] = experiment: Detection of in vivo induction of hypoxia in mice with HeLa tumors (FRI of excised tumors); conditions: 2 nmol i.v., tumors excised and imaged by FRI 24 hours after injection
Description: Female nu/nu mice at 4-5 weeks old, obtained from (Harlan Laboratory, Indianapolis, IN) were injected subcutaneously (s.c.) with HeLa cells (1.5×10^6 cells/site) in the mammary fat pads. Once tumors reached the desired volume of 600-700 mm^3 (measured with calipers using the formula volume mm^3=length×width^2/2), mice were grouped randomly (n=4-5 mice/group) for with some exposed to controlled hypoxic environmental conditions (8% oxygen) in a chamber with monitored oxygen levels. Control mice with matched tumor volumes were maintained under normal housing conditions. C5, (2 nmol) was injected intravenously to all mice at 24 hours after the initiation of the experiment. Hypoxic mice were placed back into the hypoxic chamber after the injection, and tumors were excised and imaged by fluorescence reflectance imaging (FRI) 24 hours following injection. FIGS. 6A-B show fluorescence images of the excised tumors from mice that were placed in normal air (left) and 8% 02 (right).

## CC1(C)C(/C=C/C(=C/C=C2/N(CCCS(=O)(=O)O)c3ccc4c(S(=O)(=O)O)cc(S(=O)(=O)O)cc4c3C2(C)C)c2ccc(C(=O)NCCC(=O)Nc3nnc(S(N)(=O)=O)s3)cn2)=[N+](CCCS(=O)(=O)[O-])c2ccc3c(S(=O)(=O)O)cc(S(=O)(=O)O)cc3c21 [Compound C5, 3-(2-((1E,3Z,5E)-5-(1,1-dimethyl-6,8-disulfo-3-(3-sulfopropyl)-1H-benzo[e]indol-2(3H)-ylidene)-3-(5-((3-oxo-3-((5-sulfamoyl-1,3,4-thiadiazol-2-yl)amino)propyl)carbamoyl)pyridin-2-yl)penta-1,3-dien-1-yl)-1,1-dimethyl-6,8-disulfo-1H-benzo[e]indol-3-ium-3-yl)propane-1-sulfonate]
HeLa tumors [1]
  tumor signal by planar reflectance and tomographic imaging: tumors can be imaged effectively
[2]
  tissue fluorescence (biodistribution), normalized to tumors (FIG. 4): very low in most tissues with the high concentrations found in tumors, and lower concentrations accumulated in the kidneys
HeLa tumors [3]; 2 nmoles i.v., no acetazolamide
  accumulation in tumors as quantified by FMT (FIG. 5B): 116 pmol
HeLa tumors [3]; acetazolamide 10 mg/kg 60 minutes before agent (2 nmoles i.v.)
  accumulation in tumors as quantified by FMT (FIG. 5B): 39 pmol
HeLa tumors [3]; acetazolamide 10 mg/kg 60 minutes before agent (2 nmoles i.v.), imaging at 24 hours
  tumor signal in tomographic images after acetazolamide compared to untreated animals (FIG. 5A): reduced signal
HeLa tumors [3]; acetazolamide 10 mg/kg 60 minutes before agent, versus untreated
  less tumor signal in acetazolamide treated animals: approximately 66%
HeLa tumors [4]
  uptake in excised tumors, hypoxic atmosphere (8% oxygen) versus normal air (FIGS. 6A-B): significantly greater uptake
